Data taken from ChEMBL document CHEMBL3227940, “Cyclopropylamines as suicide substrates for cytochromes P-450” (J Med Chem, 1979).

Columns and labels:
Type in all cases: ADME
Settings in all cases: probe aminopyrine
cytochrome P450 [1] = assay: Inactivation of cytochrome P450 in rat liver microsomes assessed as inhibition of aminopyrine demethylation at 1 mM preincubated for 12 mins measured 5 mins after substrate addition by Nash reagent based colorimetry (reference value: 0%)
cytochrome P450 [2] = assay: Inactivation of cytochrome P450 in rat liver microsomes assessed as inhibition of aminopyrine demethylation at 1 mM measured without preincubation by Nash reagent based colorimetry (reference value: 0%)
cytochrome P450 [3] = assay: Inactivation of cytochrome P450 in rat liver microsomes assessed as inhibition of aminopyrine demethylation at 1 mM preincubated for 12 mins measured 5 mins after substrate addition by Nash reagent based colorimetry in absence of cofactor NADPH-generating system (reference value: 0%)
cytochrome P450 [4] = assay: Inactivation of cytochrome P450 in rat liver microsomes assessed as inhibition of aminopyrine demethylation at 1 mM measured without preincubation by Nash reagent based colorimetry in presence of GSH (reference value: 0%)
cytochrome P450 [5] = assay: (§1) Inactivation of cytochrome P450 in rat liver microsomes assessed as inhibition of aminopyrine demethylation at 1 mM preincubated for 12 mins measured 5 mins after substrate addition by Nash reagent based colorimetry in presence of GSH (reference value: 0%)
cytochrome P450 [6] = assay: Inactivation of cytochrome P450 in rat liver microsomes assessed as inhibition of aminopyrine demethylation at 1 mM preincubated for 12 mins measured 5 mins after substrate addition by Nash reagent based colorimetry in presence of CO/O2 (80:20) (reference value: 0%)
cytochrome P450 [7] = assay: Inactivation of cytochrome P450 in rat liver microsomes assessed as inhibition of aminopyrine demethylation at 1 mM measured without preincubation by Nash reagent based colorimetry in presence of flavoprotein amine oxidase alternate substrate-inhibitor methimazole (reference value: 0%)
cytochrome P450 [8] = assay: as §1, with “flavoprotein amine oxidase alternate substrate-inhibitor methimazole” for “GSH”
cytochrome P450 [9] = assay: Inactivation of cytochrome P450 in rat liver microsomes assessed as inhibition of aminopyrine demethylation at 0.1 mM preincubated for 12 mins measured 5 mins after substrate addition by Nash reagent based colorimetry (reference value: 0%)

| Structure (SMILES) | inhibition at 5 min, 1000 µM (cytochrome P450 [1]) [%] | further results |
| --- | --- | --- |
| c1ccc(CN2CCOCC2)cc1 | 34 | inhibition at 1000 µM (cytochrome P450 [2]): 27% |
| COc1ccc(CNC(C)C)cc1 | 0 | – |
| CC(C)NCc1ccccc1 | 9 | inhibition at 1000 µM (cytochrome P450 [2]): 9% |
| CC(C)NCc1ccc(Cl)cc1 | 25 | – |
| C(CCNC1CC1)=C1c2ccccc2CCc2ccccc21 | – | inhibition at 5 min, 100 µM (cytochrome P450 [9]): 92% |
| CC(C)NCCC=C1c2ccccc2CCc2ccccc21 | – | inhibition at 5 min, 100 µM (cytochrome P450 [9]): 55% |

More lines, main results first:

| inhibition at 5 min, 1000 µM (cytochrome P450 [1]) [%] | Structure (SMILES) | further results |
| --- | --- | --- |
| 61 | c1ccc(CNC2CC2)cc1 | inhibition at 5 min, 1000 µM (cytochrome P450 [3]): 13%; inhibition at 1000 µM (cytochrome P450 [4]): 17%; inhibition at 5 min, 1000 µM (cytochrome P450 [5]): 62%; inhibition at 5 min, 1000 µM (cytochrome P450 [6]): 24%; inhibition at 1000 µM (cytochrome P450 [7]): 25%; inhibition at 5 min, 1000 µM (cytochrome P450 [8]): 57%; inhibition at 1000 µM (cytochrome P450 [2]): 29% |
| 54 | COc1ccc(CNC2CC2)cc1 | – |
| 77 | Cc1ccc(CNC2CC2)cc1 | – |
| 79 | Clc1ccc(CNC2CC2)cc1 | – |
| 79 | Brc1ccc(CNC2CC2)cc1 | – |
| 2 | Cc1ccc(CNC(C)C)cc1 | – |
| 27 | CC(C)NCc1ccc(Br)cc1 | – |
